Experimental data as given in BindingDB's records for doi:10.1111/cbdd.12778 (Shandong University, 2016).

Assays:
Histone deacetylase 8 = target: T1, Histone deacetylase 8 (Homo sapiens, UniProt Q9BY41); test: In vitro HDAC8 Assay
T1 sequence (Q9BY41 whole entry): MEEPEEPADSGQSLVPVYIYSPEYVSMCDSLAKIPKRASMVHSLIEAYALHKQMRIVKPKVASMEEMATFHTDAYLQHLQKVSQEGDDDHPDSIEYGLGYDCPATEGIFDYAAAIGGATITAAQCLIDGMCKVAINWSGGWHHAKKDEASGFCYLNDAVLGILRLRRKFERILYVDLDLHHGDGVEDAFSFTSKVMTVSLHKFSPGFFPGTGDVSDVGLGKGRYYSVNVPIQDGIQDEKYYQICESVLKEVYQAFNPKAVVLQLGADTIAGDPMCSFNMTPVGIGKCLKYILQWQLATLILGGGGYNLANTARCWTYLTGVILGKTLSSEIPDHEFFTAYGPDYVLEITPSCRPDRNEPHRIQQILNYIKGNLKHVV
Protocol: Briefly, the HDAC8 enzyme was diluted 20 times. Then, 10 μL of HDAC8 solution was mixed with compounds at various concentrations (50 μL). Then, 40 μL of the substrate [Boc-Lys-(acetyl)-AMC, 300 μm] was added, and the mixture was incubated at 37 °C for 30 min. Subsequently, the reaction was stopped by the addition of 100 μL of developer containing trypsin (10 μg/mL) and TSA (2 μm). Fluorescence intensity was measured by a microplate reader at excitation and emission wavelengths of 390 and 460 nm, respectively.

Aminopeptidase N = target: T2, Aminopeptidase N (Sus scrofa, UniProt P15145); test: APN Inhibition Assay; details: pH 7.2
T2 sequence (P15145 whole entry): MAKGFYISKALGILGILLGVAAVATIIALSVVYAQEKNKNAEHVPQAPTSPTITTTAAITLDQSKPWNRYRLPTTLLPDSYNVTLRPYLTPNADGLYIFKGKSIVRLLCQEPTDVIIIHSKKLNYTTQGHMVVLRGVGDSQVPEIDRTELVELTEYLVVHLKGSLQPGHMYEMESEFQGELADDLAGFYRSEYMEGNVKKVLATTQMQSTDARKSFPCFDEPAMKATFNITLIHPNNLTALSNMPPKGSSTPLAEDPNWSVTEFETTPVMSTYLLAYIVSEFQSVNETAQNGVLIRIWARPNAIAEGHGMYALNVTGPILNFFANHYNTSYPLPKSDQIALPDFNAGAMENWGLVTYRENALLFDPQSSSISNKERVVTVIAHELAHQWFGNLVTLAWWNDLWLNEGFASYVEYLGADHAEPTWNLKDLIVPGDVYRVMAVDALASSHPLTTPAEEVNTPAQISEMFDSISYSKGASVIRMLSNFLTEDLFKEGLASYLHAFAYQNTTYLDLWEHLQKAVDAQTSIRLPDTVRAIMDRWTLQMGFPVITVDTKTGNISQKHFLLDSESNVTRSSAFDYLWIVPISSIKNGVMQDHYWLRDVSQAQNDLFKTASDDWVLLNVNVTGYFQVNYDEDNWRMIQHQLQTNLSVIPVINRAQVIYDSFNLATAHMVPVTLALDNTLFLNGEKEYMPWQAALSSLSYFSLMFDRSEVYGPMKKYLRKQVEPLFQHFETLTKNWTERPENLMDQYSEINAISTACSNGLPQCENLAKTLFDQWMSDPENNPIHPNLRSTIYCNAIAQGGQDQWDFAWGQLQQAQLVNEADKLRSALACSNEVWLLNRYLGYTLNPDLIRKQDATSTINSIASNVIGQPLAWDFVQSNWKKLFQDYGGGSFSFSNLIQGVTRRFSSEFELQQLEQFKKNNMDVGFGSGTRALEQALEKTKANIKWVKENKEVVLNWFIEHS
Protocol: Briefly, the assay was performed in 96-well plates in […] PBS, pH 7.2 as the assay buffer, at 37 °C. The APN solution was mixed with compounds at various concentrations and incubated at 37 °C for 5 min. Subsequently, the substrate (l-leucine-p-nitroanilide) was added and the mixture was incubated for 30 min at 37°C.

Row | Structure (SMILES) | IC50 (Histone deacetylase 8) [µM] | IC50 (Aminopeptidase N) [µM]
1 | CC1(C)CCC(C)(C)c2cc(NC(=O)c3ccc(C(=O)O)cc3)ccc21 [4-[(5,5,8,8-tetramethyl-5,6,7,8-tetrahydronaphthalen-2-yl)carbamoyl]benzoic acid] | > 100 | > 100
2 | CC1(C)CCC(C)(C)c2cc(NC(=O)c3ccc(C(=O)NO)cc3)ccc21 [N1-hydroxy-N4-(5,5,8,8-tetramethyl-5,6,7,8-tetrahydronaphthalen-2-yl)terephthalamide (7b)] | 4.3 | > 100
3 | O=C(CCCCCCC(=O)Nc1ccccc1)NO [Zolinza] |  | > 100
